Experimental data taken from patent US10189816B2, “Substituted pyridines as inhibitors of human immunodeficiency virus replication” (priority 2015, dated 2019).
Like-named read-outs stand apart in the source and are kept apart here.

Tested on: NL-RLuc virus
Assay: Inhibition of HIV replication (NL-RLuc reporter virus in MT-2 cells, luciferase readout)
Format: cell-based
Conditions: Human immunodeficiency virus 1, MT2, 120 h
Procedure, shortened: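 MT-2 cells infected with NL4-3-derived NL-RLuc reporter virus (Renilla luciferase replacing part of nef) with serial compound dilutions, RPMI 1640 + 10% FBS; 5 days. Growth by luciferase; EC50 from median effect equation, ≥2 experiments.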

| Compound | EC50 (read-out: Activity) | EC50 (read-out: EC50 μM) |
| --- | --- | --- |
| COc1ccc(CN2CCc3cc(-c4c(C)nc(C)c([C@H](OC(C)(C)C)C(=O)O)c4N4CCC(C)(C)CC4)ccc3C2)cc1Cl [Compound 137, (S)-2-(tert-butoxy)-2-(5-(2-(3-chloro-4-methoxybenzyl)-1,2,3,4-tetrahydroisoquinolin-6-yl)-4-(4,4-dimethylpiperidin-1-yl)-2,6-dimethylpyridin-3-yl)acetic acid] | < 0.1 µM |  |
| COc1cc(CN2CCc3cc(-c4c(C)nc(C)c([C@H](OC(C)(C)C)C(=O)O)c4N4CCC(C)(C)CC4)ccc3C2)ccc1Cl [Compound 138, (S)-2-(tert-butoxy)-2-(5-(2-(4-chloro-3-methoxybenzyl)-1,2,3,4-tetrahydroisoquinolin-6-yl)-4-(4,4-dimethylpiperidin-1-yl)-2,6-dimethylpyridin-3-yl)acetic acid] | < 0.1 µM |  |
| COc1ccc(C(C)C)cc1CN1CCc2cc(-c3c(C)nc(C)c([C@H](OC(C)(C)C)C(=O)O)c3N3CCC(C)(C)CC3)ccc2C1 [Compound 139, (S)-2-(tert-butoxy)-2-(4-(4,4-dimethylpiperidin-1-yl)-5-(2-(5-isopropyl-2-methoxybenzyl)-1,2,3,4-tetrahydroisoquinolin-6-yl)-2,6-dimethylpyridin-3-yl)acetic acid] | < 0.1 µM | 0.03 µM |
| COc1cc(CN2CCc3cc(-c4c(C)nc(C)c([C@H](OC(C)(C)C)C(=O)O)c4N4CCC(C)(C)CC4)ccc3C2)ccc1C [Compound 140, (S)-2-(tert-butoxy)-2-(4-(4,4-dimethylpiperidin-1-yl)-5-(2-(3-methoxy-4-methylbenzyl)-1,2,3,4-tetrahydroisoquinolin-6-yl)-2,6-dimethylpyridin-3-yl)acetic acid] | < 0.1 µM |  |
| COc1ccc(CN2CCc3cc(-c4c(C)nc(C)c([C@H](OC(C)(C)C)C(=O)O)c4N4CCC(C)(C)CC4)ccc3C2)cc1C [Compound 141, (S)-2-(tert-butoxy)-2-(4-(4,4-dimethylpiperidin-1-yl)-5-(2-(4-methoxy-3-methylbenzyl)-1,2,3,4-tetrahydroisoquinolin-6-yl)-2,6-dimethylpyridin-3-yl)acetic acid] | < 0.1 µM |  |
| COc1c(F)cccc1CN1CCc2cc(-c3c(C)nc(C)c([C@H](OC(C)(C)C)C(=O)O)c3N3CCC(C)(C)CC3)ccc2C1 [Compound 142, (S)-2-(tert-butoxy)-2-(4-(4,4-dimethylpiperidin-1-yl)-5-(2-(3-fluoro-2-methoxybenzyl)-1,2,3,4-tetrahydroisoquinolin-6-yl)-2,6-dimethylpyridin-3-yl)acetic acid] | < 0.1 µM |  |
| COc1ccc(CN2CCc3cc(-c4c(C)nc(C)c([C@H](OC(C)(C)C)C(=O)O)c4N4CCC(C)(C)CC4)ccc3C2)cc1C(C)C [Compound 143, (S)-2-(tert-butoxy)-2-(4-(4,4-dimethylpiperidin-1-yl)-5-(2-(3-isopropyl-4-methoxybenzyl)-1,2,3,4-tetrahydroisoquinolin-6-yl)-2,6-dimethylpyridin-3-yl)acetic acid] | < 0.1 µM |  |
| Cc1nc(C)c([C@H](OC(C)(C)C)C(=O)O)c(N2CCC(C)(C)CC2)c1-c1ccc2c(c1)CCN(Cc1c(O)cc(F)cc1F)C2 [Compound 144, (S)-2-(tert-butoxy)-2-(5-(2-(2,4-difluoro-6-hydroxybenzyl)-1,2,3,4-tetrahydroisoquinolin-6-yl)-4-(4,4-dimethylpiperidin-1-yl)-2,6-dimethylpyridin-3-yl)acetic acid] | < 0.1 µM | 0.008 µM |
| COc1cccc(Cl)c1CN1CCc2cc(-c3c(C)nc(C)c([C@H](OC(C)(C)C)C(=O)O)c3N3CCC(C)(C)CC3)ccc2C1 [Compound 145, (S)-2-(tert-butoxy)-2-(5-(2-(2-chloro-6-methoxybenzyl)-1,2,3,4-tetrahydroisoquinolin-6-yl)-4-(4,4-dimethylpiperidin-1-yl)-2,6-dimethylpyridin-3-yl)acetic acid] | < 0.1 µM |  |
| COc1ccc(CN2CCc3cc(-c4c(C)nc(C)c([C@H](OC(C)(C)C)C(=O)O)c4N4CCC(C)(C)CC4)ccc3C2)c(F)c1 [Compound 146, (S)-2-(tert-butoxy)-2-(4-(4,4-dimethylpiperidin-1-yl)-5-(2-(2-fluoro-4-methoxybenzyl)-1,2,3,4-tetrahydroisoquinolin-6-yl)-2,6-dimethylpyridin-3-yl)acetic acid] | < 0.1 µM |  |
| COc1ccc(CN2CCc3cc(-c4c(C)nc(C)c([C@H](OC(C)(C)C)C(=O)O)c4N4CCC(C)(C)CC4)ccc3C2)c(C)c1C [Compound 147, (S)-2-(tert-butoxy)-2-(4-(4,4-dimethylpiperidin-1-yl)-5-(2-(4-methoxy-2,3-dimethylbenzyl)-1,2,3,4-tetrahydroisoquinolin-6-yl)-2,6-dimethylpyridin-3-yl)acetic acid] | < 0.1 µM |  |
| COc1cc(C)c(CN2CCc3cc(-c4c(C)nc(C)c([C@H](OC(C)(C)C)C(=O)O)c4N4CCC(C)(C)CC4)ccc3C2)cc1C [Compound 148, (S)-2-(tert-butoxy)-2-(4-(4,4-dimethylpiperidin-1-yl)-5-(2-(4-methoxy-2,5-dimethylbenzyl)-1,2,3,4-tetrahydroisoquinolin-6-yl)-2,6-dimethylpyridin-3-yl)acetic acid] | < 0.1 µM |  |
| CCOc1ccc(CN2CCc3cc(-c4c(C)nc(C)c([C@H](OC(C)(C)C)C(=O)O)c4N4CCC(C)(C)CC4)ccc3C2)cc1 [Compound 149, (S)-2-(tert-butoxy)-2-(4-(4,4-dimethylpiperidin-1-yl)-5-(2-(4-ethoxybenzyl)-1,2,3,4-tetrahydroisoquinolin-6-yl)-2,6-dimethylpyridin-3-yl)acetic acid] | < 0.1 µM |  |
| Cc1nc(C)c([C@H](OC(C)(C)C)C(=O)O)c(N2CCC(C)(C)CC2)c1-c1ccc2c(c1)CCN(Cc1ccc(OC(C)C)cc1)C2 [Compound 150, (S)-2-(tert-butoxy)-2-(4-(4,4-dimethylpiperidin-1-yl)-5-(2-(4-isopropoxybenzyl)-1,2,3,4-tetrahydroisoquinolin-6-yl)-2,6-dimethylpyridin-3-yl)acetic acid] | < 0.1 µM | 0.021 µM |
| COc1ccc(C(F)(F)F)cc1CN1CCc2cc(-c3c(C)nc(C)c([C@H](OC(C)(C)C)C(=O)O)c3N3CCC(C)(C)CC3)ccc2C1 [Compound 151, (S)-2-(tert-butoxy)-2-(4-(4,4-dimethylpiperidin-1-yl)-5-(2-(2-methoxy-5-(trifluoromethyl)benzyl)-1,2,3,4-tetrahydroisoquinolin-6-yl)-2,6-dimethylpyridin-3-yl)acetic acid] | < 0.1 µM |  |
| Cc1nc(C)c([C@H](OC(C)(C)C)C(=O)O)c(N2CCC(C)(C)CC2)c1-c1ccc2c(c1)CCN(Cc1ccccc1OC(C)C)C2 [Compound 152, (S)-2-(tert-butoxy)-2-(4-(4,4-dimethylpiperidin-1-yl)-5-(2-(2-isopropoxybenzyl)-1,2,3,4-tetrahydroisoquinolin-6-yl)-2,6-dimethylpyridin-3-yl)acetic acid] | < 0.1 µM |  |
| Cc1nc(C)c([C@H](OC(C)(C)C)C(=O)O)c(N2CCC(C)(C)CC2)c1-c1ccc2c(c1)CCN(Cc1ccccc1OCC(C)C)C2 [Compound 153, (S)-2-(tert-butoxy)-2-(4-(4,4-dimethylpiperidin-1-yl)-5-(2-(2-isobutoxybenzyl)-1,2,3,4-tetrahydroisoquinolin-6-yl)-2,6-dimethylpyridin-3-yl)acetic acid] | < 0.1 µM |  |
